Laboratory results as given in US8076142B2, “Rooted plant assay system” (BASF Plant Sciences GmbH, priority 2006, dated 2011).

Test system: soybean explants
Test: Auxin effect on transformation efficiency in soybean explants (disarmed A. rhizogenes, root induction and selection medium)
Type: cell-based
Conditions: for transformation efficiency compared to control with no auxin: cotyledons from William 82 as explants
Experimental: Clean soybean seeds from soybean cultivar were sterilized in a chamber with chlorine gas produced by adding 3.5 ml 12N HCl drop wise into 100 ml bleach. All operations were conducted in a fume hood. After 24 hours in the chamber, seeds were removed and used immediately or stored at room temperature until use. Discolored seeds or cracked seeds were removed. To imbibe seeds, warm GM medium was poured around seeds until the seeds were entirely covered by the medium. Seedlings were grown in the light for 5-7 days until the epicotyl was extended beyond the cotyledons. Seedlings can be stored at 4° C. overnight before being used in transformation. The Germination Medium (GM) comprises: 1×B5 salts and vitamins, 1×MS iron stock, 2% sucrose, and 0.8% Noble agar at pH 5.8. As an alternative, soybean seeds can be germinated in 1% agar (50 ml) in Petri dishes for 7 days before Agrobacterium inoculation.
Three days before inoculation, a disarmed Agrobacterium culture, for example, the disarmed A. rhizogenes strain K599 liquid culture, was placed in 5 ml LB+Kan50 (containing 50 ug/ml Kanamycin) media in a 28° C. shaker (225 rpm) overnight. The next day, 1 ml of the culture was taken and spread onto an LB+Kan50 agar plate. The plates were incubated in a 28° C. incubator for two days. At the end of the two-day period the plates were covered with thick colonies. One plate was prepared for every 50 explants to be inoculated.
Soybean seedlings had elongated hypocotyls approximately 3 to 5 cm in length with visible epicotyls. The explants were then prepared by removing the epicotyls and part of the hypocotyls. The explant contained one or two cotyledons, an axillary meristem and the hypocotyl about 0.5 cm to about 3 cm in length. The seed coat was removed to facilitate cotyledon development. The cut end of the hypocotyl was the target for transformation/infection.
Alternatively, cotyledons containing the proximal end from its connection with the seedlings were used as another type of explant for transformation. The cut end was the target for Agrobacterium inoculation.
After the explants were cut off the seedlings, the cut end was immediately dipped onto the disarmed thick A. rhizogenes colonies prepared above so that the colonies were visible on the cut end. Alternatively, the explants can be immersed in the disarmed A. rhizogenes liquid culture for 30 minutes. The explants were then placed onto 1% agar in Petri dishes for co-cultivation. Approximately 10 explants were placed in one dish. The dishes were sealed with Saran wrap and co-cultured at 25-27° C. under light for 6-8 days.
After the transformation and co-cultivation step, soybean explants were transferred to rooting induction medium with a selection agent, for example, S-B5-605 or S-B5-607 for Bar gene selection (De Block et al., EMBO J. 6:2513-2518, 1987), or S-B5-708 for an AHAS mutant gene (Sathasivan et al., Plant Phys. 97:1044-50, 1991) selection, in Petri dishes. The cut end was inserted into the medium so that the callus developed from the cut end in the future was just below the medium surface. Six to nine explants were placed in each Petri dish. Cultures were maintained in the same condition as in the co-cultivation step.
The S-B5-605 medium comprises: 0.5×B5 salts, 3 mM MES, 2% sucrose, 1×B5 vitamins, 400 μg/ml Timentin, 0.8% Noble agar, 1 mg/1 IBA and 3 μg/ml Glufosinate Ammonion (selection agent for Bar gene) at pH 5.8. The S-MS-607 medium comprises: 0.2×MS salts and B5 vitamins, 2% sucrose, 400 mg/l Timentin, and 3 mg/L Glufosinate Ammonium at pH5.8. The S-B5-708 medium comprises: 0.5×B5 salts, 3 mM MES, 2% sucrose, 1×B5 vitamins, 400 μg/ml Timentin, 0.8% Noble agar, and 1 μM Imazapyr (selection agent for AHAS gene) (BASF Corporation, Florham Park, N.J.) at pH5.8.
Two to three weeks after the selection and root induction, transformed roots were formed on the cut ends of the explants. […]

| SMILES | transgenic roots obtained from hypocotyl explants (control, 0-1 mg/l IBA in the rooting induction and selection medium) | transformation efficiency compared to control with no auxin (3 mg/l IBA) | transformation efficiency (high concentration of IBA, 3 to 5 mg/l, in the medium) | transformation efficiency (soybean hypocotyl and cotyledon explants, medium with 1 mg/l IBA compared to no auxin) | transformation efficiency (NAA 1 mg/l in the medium) | transformation efficiency compared to control with no auxin (1 mg/l NAA) | transgenic roots obtained from hypocotyl explants (infected explants cultured and selected in medium containing 1 mg/l NAA) |
| --- | --- | --- | --- | --- | --- | --- | --- |
| O=C(O)CCCc1c[nH]c2ccccc12 [IBA, indole-3-butyric acid] | 1-5 | doubled | dramatically increased | similar |  |  |  |
| O=C(O)Cc1cccc2ccccc12 [NAA, napthalene acetic acid] |  |  |  |  | dramatically increased | doubled | more than 20 |
